Results as given in patent US20080234262A1 (Wyeth, priority 2007, published 2008).

System: breast line MDA468
Assay: In vitro cell culture growth assay (MTS), MDA468
Type: cell-based, human
Settings: Homo sapiens, 72 h, MDA468 cells, three days after drug treatment
Method: Human tumor cell lines used include prostate lines LNCap and PC3MM2, breast lines MDA468, MCF7, renal line HTB44 (A498), colon line HCT116, and ovarian line OVCAR3. Cells were plated in 96-well culture plates. One day following plating, the inhibitors were added to cells. Three days after drug treatment, viable cell densities were determined by metabolic conversion (by viable cells) of the dye MTS, a well established cell proliferation assay. The assays were performed using an assay kit purchased from Promega Corp. (Madison, Wis.) following the protocol supplied with the kit. The MTS assay results were read in a 96-well plate reader by measuring absorbance at 490 nm. The effect of each treatment was calculated as percent of control growth relative to the vehicle-treated cells grown in the same culture plate.

SMILES	IC50 [nM]
COC(=O)Nc1ccc(-c2nc(N3CCOCC3)c3cnn(C4CCN(Cc5cccnc5)CC4)c3n2)cc1 [Example 209, methyl (4-{4-morpholin-4-yl-1-[1-(pyridin-3-ylmethyl)piperidin-4-yl]-1H-pyrazolo[3,4-d]pyrimidin-6-yl}phenyl)carbamate]	1500
O=C(Nc1ccc(-c2nc(N3CCOCC3)c3cnn(C4CCN(Cc5ccccc5)CC4)c3n2)cc1)Nc1ncc[nH]1 [Compound 570, 1-{4-[1-(1-benzylpiperidin-4-yl)-4-morpholin-4-yl-1H-pyrazolo[3,4-d]pyrimidin-6-yl]phenyl}-3-(1H-imidazol-2-yl)urea]	3500
CC(C)(C)OC(=O)N1CCC(n2ncc3c(N4CCOCC4)nc(-c4ccc(NC(=O)NC5CC5)cc4)nc32)CC1 [Compound 767, tert-butyl 4-(6-{4-[(cyclopropylcarbamoyl)amino]phenyl}-4-morpholin-4-yl-1H-pyrazolo[3,4-d]pyrimidin-1-yl)piperidine-1-carboxylate]	700
CN(C)NC(=O)Nc1ccc(-c2nc(N3CCOCC3)c3cnn(C4CCN(Cc5ccccc5)CC4)c3n2)cc1 [Compound 536, N-{4-[1-(1-benzylpiperidin-4-yl)-4-morpholin-4-yl-1H-pyrazolo[3,4-d]pyrimidin-6-yl]phenyl}-2,2-dimethylhydrazinecarboxamide]	8000
CN(C)CCNC(=O)Nc1ccc(-c2nc(N3CCOCC3)c3cnn(C4CCN(Cc5ccccc5)CC4)c3n2)cc1 [Compound 513, 1-{4-[1-(1-benzylpiperidin-4-yl)-4-morpholin-4-yl-1H-pyrazolo[3,4-d]pyrimidin-6-yl]phenyl}-3-[2-(dimethylamino)ethyl]urea]	600
COC(=O)N1CCC(n2ncc3c(N4CCOCC4)nc(-c4ccc(N)cc4)nc32)CC1 [Compound 741, methyl 4-[6-(4-aminophenyl)-4-morpholin-4-yl-1H-pyrazolo[3,4-d]pyrimidin-1-yl]piperidine-1-carboxylate]	12000
CONC(=O)Nc1ccc(-c2nc(N3CCOCC3)c3cnn(C4CCN(Cc5ccccc5)CC4)c3n2)cc1 [Compound 532, 1-{4-[1-(1-benzylpiperidin-4-yl)-4-morpholin-4-yl-1H-pyrazolo[3,4-d]pyrimidin-6-yl]phenyl}-3-methoxyurea]	160
CNC(=O)Cc1ccc(-c2nc(N3CCOCC3)c3cnn(C4CCN(Cc5ccccc5)CC4)c3n2)cc1 [Compound 616, 2-{4-[1-(1-benzylpiperidin-4-yl)-4-morpholin-4-yl-1H-pyrazolo[3,4-d]pyrimidin-6-yl]phenyl}-N-methylacetamide]	10000
COC(=O)N1CCC(n2ncc3c(N4CCOCC4)nc(-c4ccc(NC(=O)Nc5ccc(CCN6CCCC6)cc5)cc4)nc32)CC1 [Compound 914, methyl 4-{4-morpholin-4-yl-6-[4-({[4-(2-pyrrolidin-1-ylethyl)phenyl]carbamoyl}amino)phenyl]-1H-pyrazolo[3,4-d]pyrimidin-1-yl}piperidine-1-carboxylate]	20
O=C(Nc1ccc(-c2nc(N3CCOCC3)c3cnn(C4CCN(Cc5ccccc5)CC4)c3n2)cc1)NC1CC1 [Compound 556, 1-{4-[1-(1-benzylpiperidin-4-yl)-4-morpholin-4-yl-1H-pyrazolo[3,4-d]pyrimidin-6-yl]phenyl}-3-cyclopropylurea]	1050
O=C(Nc1ccc(-c2nc(N3CCOCC3)c3cnn(C4CCN(Cc5ccccc5)CC4)c3n2)cc1)NC1CC1 [Example 311, 1-{4-[1-(1-benzylpiperidin-4-yl)-4-morpholin-4-yl-1H-pyrazolo[3,4-d]pyrimidin-6-yl]phenyl}-3-cyclopropylurea]	1100
COC(=O)N1CCC(n2ncc3c(N4CCOCC4)nc(-c4ccc(NC(=O)Nc5ccc(CCO)cc5)cc4)nc32)CC1 [Compound 913, methyl 4-{6-[4-({[4-(2-hydroxyethyl)phenyl]carbamoyl}amino)phenyl]-4-morpholin-4-yl-1H-pyrazolo[3,4-d]pyrimidin-1-yl}piperidine-1-carboxylate]	1.3
